Holding throughout (format): cell-based, human
In test [1] the test system is NICD. Kind of test: Western blotting of NICD after MG132 treatment. As to conditions: AML cells (KG1a and HL60). How it is done:
(§1) Cells were lysed in a lysis buffer containing 0.5 mM EDTA, 20 mM HEPES and 2% SDS. Samples mixed with SDS-gel loading buffer were loaded onto SDS-PAGE gel and transferred onto polyvinylidene fluoride (PVDF) microporous membranes (Millipore). Membranes were blocked with 5% nonfat milk in TBST (20 mM Tris-HCl, 150 mM NaCl, 0.1% Tween-20 with pH 7.5) for 2 hours and incubated with primary antibodies (Table S6, Supporting Information) at 4°C overnight. The membranes were incubated with a secondary antibody (Table S6, Supporting Information) followed by detection in an imaging system (ChampChemi 910, SageCreation) using the ECL reagent solution (SageCreation).

Test [2] concerns NICD. Kind of test: Co-immunoprecipitation, NICD-bound ubiquitin. As to conditions: KG1a- and HL60- shANXA1 or shControl cells; MG132 0 or 6 h; Figure 3C. As to the method:
For co-immunoprecipitation (Co-IP) assay, the cells were lysed with NP-40 lysis buffer (Beyotime) containing 1 mM PMSF for 30 min at 4°C. The total protein concentrations were measured using BCA protein assay kit (Solarbio) according to the instructions. The lysates were divided into several tubes and precleared by adding protein A/G-agarose (Santa Cruz) for 30 min at 4°C. The samples were centrifuged to remove the precipitation and incubated with Notch1 antibody or normal rabbit IgG (Table S6, Supporting Information) for 2 hours, and then incubated with protein A/G-agarose overnight. The complexes were washed with NP-40 lysis buffer four times before being eluted in SDS-gel loading buffer and detected by western blotting.

Another test has as its system p15. Kind of test: Western blotting of p15 after RO4929097 treatment. As to conditions: 24 h, Figure 4D. How it is done: as §1
The next test concerns KG1a-shANXA1 cells. Kind of test: Cell counting proliferation assay, KG1a-shANXA1. As to conditions: 24 h, Figure 4E, three independent experiments. As to the method:
(§2) For the cell counting assay, transfected cell lines or parental cells were seeded in a cell culture plate at the same density and cultured with RPMI-1640 medium, which sometimes added drugs. The number of cells was counted by a cell counter (Countstar BioTech IC 1000, Countstar) after indicated time.

In the next test the test system is HL60-shANXA1 cells. In words: Cell counting proliferation assay, HL60-shANXA1. As to conditions: 24 h, Figure 4E, three independent experiments. How it is done: as §2
The next test relates to KG1a cells. In words: MTT assay, KG1a (FPR blocking or activation). As to conditions: Figure S14, three independent experiments. As to the method:
(§3) For Methylthiazolyldiphenyl-tetrazolium bromide (MTT) assay, cells were seeded in a 96-well plate and incubated with drugs or peptides. At the indicated time point, each well was added with 10 μL MTT solution (5 mg mL^-1, Sigma-Aldrich) and then incubated at 37°C in 5% CO2 for 4 hours. The medium was replaced by DMSO with 150 μL to dissolve the formazan crystals.
In general terms: Tetrazolium dyes change colour on reduction, which living cells bring about.

The subject of the next test is HL60 cells. In words: MTT assay, HL60 (FPR blocking or activation). As to conditions: Figure S14, three independent experiments. As to the method:
as §3

Ends that are not written are not given here. Peptide text beside a SMILES is read from it. * marks the point of attachment. Cbz = O=C(OCc1ccccc1)*

`CC(C)C[C@@H](C=O)NC(=O)[C@H](CC(C)C)NC(=O)[C@H](CC(C)C)NC(=O)OCc1ccccc1` [MG132] (Cbz-Leu-Leu-Leu-aldehyde): the “NICD expression level” value with NICD [1] (ANXA1 knockdown group) is on record as “minimally affected the expression level of NICD in the ANXA1 knockdown group”. Besides, the “NICD degradation” value in the test on NICD [1] (shControl, 3 h) was “significantly reversed the ANXA1‐induced NICD degradation after 3 h of treatment in the control group”. Further, the “ubiquitin bound to NICD” value in the test on NICD [2] was “ubiquitin was bound to NICD significantly in the shControl cells after MG132 treatment rather than ANXA1 knockdown cells”.
For `CC(C)(C(=O)NCC(F)(F)C(F)(F)F)C(=O)N[C@@H]1C(=O)Nc2ccccc2-c2ccccc21` [RO4929097], the “p15 expression” value with p15 (HL60 with ANXA1 knockdown) was “inhibited the expression of p15 in KG1a and HL60 cells with ANXA1 knockdown”; with p15 (KG1a with ANXA1 knockdown), “inhibited the expression of p15 in KG1a and HL60 cells with ANXA1 knockdown”. The “cell proliferation” value in the test on KG1a-shANXA1 cells and in the test with HL60-shANXA1 cells was “promoting the proliferation of AML cells” each time.
Turning to “Ac2-26: N-terminal ANXA1 peptide, FPR agonist (Ac-AMVSEFLKQAWFIENEEQEYVQTVK; UniProt P04083 2-26, looked up, fragment)”, the “effect on proliferation” value with KG1a cells and in the test with HL60 cells was “neither the FPR antagonist nor the N‐terminal ANXA1 peptide Ac2‐26 affected the proliferation of AML cells” in each case.

These data come from article PMC11672316, “Identification of ANXA1 as a Novel Upstream Negative Regulator of Notch1 Function in AML” (Advanced Science, 2024).
